Measurements taken from patent US20050187262A1, “Compositions comprising (S)-amlodipine and an angiotensin receptor blocker and methods of their use” (priority 2004, published 2005).

Legend:
Type in all cases: in vivo, rat
rats [1] = experiment: Phase III: dose response to (S)-amlodipine malate in the absence and presence of an ARB; conditions: for position/shift of the dose response curve of (S)-amlodipine malate plus ARB versus (S)-amlodipine malate alone: ARB given at its ED30, FIGS. 1A and 1B; for ED50: Rattus norvegicus, iv, ARB given at its ED30, read-out: apparent ED50 of (S)-amlodipine malate when combined with the ARB; for Potential Dosage Adjustment (%): extent to which (S)-amlodipine malate could be lowered when co-administered with the ARB
Procedure: (§1) (S)-amlodipine malate and seven ARBs (candasartan, eprosartan, irbesartan, losartan, olmesartan, telmisartan and valsartan) were evaluated. The study was conducted in three parts. Phase I evaluated the time-course of the hypotensive actions of all eight agents ([S]-amlodipine and the seven ARBs). In Phase II, the dose-responsive effects of [S]-amlodipine malate and the seven ARBs were evaluated individually. From this phase of the study, ED30 and ED50 doses of each of the seven ARBs were identified, defined as the dose that produced 30 or 50 percent of the hypotensive effect produced by a rapid i.v. injection (30 μg/kg) of sodium nitroprusside (NTP), a short-acting vasodilator. In Phase III, the dose response to [S]-amlodipine was evaluated in the presence and absence of the ED30 and ED50dose of each of the seven ARBs, with the objective of comparing the extent to which each ARB, at its ED30 or ED50, shifted the dose-response curve of [S]-amlodipine to the left and thus, lowering the apparent ED50 of the calcium channel blocker.
(§2) Animals were anesthetized with thiobutabarbital sodium (Inactin®, 150 mg/kg, delivered i.p.), tracheotomized and placed on a thermostatically controlled heating pad (37-38° C.). The jugular vein and the carotid artery were cannulated with PE-50 tubing for drug administration and recording of cardiovascular parameters, respectively. Blood pressure was recorded from the carotid artery by means of a pressure transducer and heart rate was derived electronically from the blood pressure signal. The signal output derived electronically from the arterial pressure was analyzed with a digital computer. The software IOX-16 continuously recorded the data every 5 sec during the entire procedure for each rat. Raw arterial pressure (in mmHg) and heart rate (beats per min), as well as changes in these two parameters relative to baseline or pre-drug levels (for doses other than initial dose), both in raw units (mm Hg or beats per min [bpm]) and as percentage change from baseline were captured and analyzed. The animals were allowed to equilibrate for 15-20 min before any treatment.
(§3) Doses are expressed in terms of free active substance. Each treatment was administered in a volume of 1 mL/kg by slow (over 20-30 seconds) i.v. bolus for all test articles, in all three phases.
(§4) The data were reported as mean±S.E.M. (standard error of the mean) from 3-5 rats per group. Raw arterial pressure (in mmHg) and heart rate (beats per min), as well as changes in these two parameters relative to baseline or pre-drug levels (for doses other than initial dose), both in raw units (mmHg or beats per min [bpm]) and as percentage change from baseline, were captured and analyzed.
ED30 and ED50 for each drug were defined as the dose causing a decline in arterial pressure corresponding to 30% and to 50%, respectively, of the maximal drop in blood pressure produced by fast bolus i.v. injection (30 μg/kg) of sodium nitroprusside.
Dose-response curves with (S)-amlodipine malate in the absence and presence of each of the seven ARBs at its ED30 are shown in FIGS. 1A and 1B. The data shown in the figures are from experiments in which ED30 doses of each of the ARBs was combined with (S)-amlodipine malate. These were chosen because ED30 doses were obtainable by direct interpolation of dose response curves from Phase II. For several of the ARBs, doses corresponding to ED50 were obtained from extrapolation of their dose response curves.

rats [2] = experiment: Phase II: dose-responsive hypotensive effects of the individual agents, ED30/ED50 relative to sodium nitroprusside; conditions: for ED30: dose causing 30% of the maximal drop in blood pressure produced by sodium nitroprusside 30 μg/kg i.v.; for ED50: Rattus norvegicus
Procedure: as §1, with “From this phase of the study, ED30 and ED50 doses of each of the seven ARBs were identified, defined as the dose that produced 30 or 50 percent of the hypotensive effect produced by a rapid i.v. injection (30 μg/kg) of sodium nitroprusside (NTP), a short-acting vasodilator.” left out
as §2, with “The” for “Animals were anesthetized with thiobutabarbital sodium (Inactin®, 150 mg/kg, delivered i.p.), tracheotomized and placed on a thermostatically controlled heating pad (37-38° C.). The”
as §3, §4

rats [3] = system: rats
Procedure: as §1, §2, §3, §4

[4] = iv, dose causing 50% of the maximal drop in blood pressure produced by sodium nitroprusside 30 μg/kg i.v., read-out: ED50 (estimated)
[5] = iv, hypotensive effect did not reach 50% of the maximum NTP effect, read-out: ED50 (extrapolated from dose response curve)

SMILES: CCOC(=O)C1=C(COCCN)NC(C)=C(C(=O)OC)[C@@H]1c1ccccc1Cl.O=C(O)C[C@H](O)C(=O)O [(S)-amlodipine malate, (S)-Amlodipine-L-Malate]
- ED50 of (S)-amlodipine malate in the absence of an ARB (rats [1]; i.v., no ARB): 92 µg/kg
- maximum decline in MBP from baseline values (rats [2]; doses 3 to 300 μg/kg i.v.): 49±1%
- ED30 (rats [2]; i.v.): 56 µg/kg
- ED50 (estimated) (rats [2]; i.v., dose causing 50% of the maximal drop in blood pressure produced by sodium nitroprusside 30 μg/kg i.v.): 110 µg/kg
- HR after injection of each dose (rats [2]; rat, in vivo, iv): gradually and concomitantly increased
- time post-injection to maximum/peak hypotensive effect (rats [3]; 100 μg/kg i.v.): 35 to 55 min
- maximum effect, decrease in blood pressure (rats [3]; 100 μg/kg i.v., anesthetized rats): 14-17 mmHg

SMILES: CCOc1nc2cccc(C(=O)O)c2n1Cc1ccc(-c2ccccc2-c2nnn[nH]2)cc1 [Candasartan, 2-ethoxy-1-[[2′-(1H-tetrazol-5-yl)[1,1′-biphenyl]-4-yl]methyl]-1H-benzimidazole-7-carboxylic acid]
- position/shift of the dose response curve of (S)-amlodipine malate plus ARB versus (S)-amlodipine malate alone (rats [1]): offset
- decline in MBP at the next higher dose (rats [2]; 300 mg/kg i.v.): no further decline
- ED50 (rats [2]; [4]): 0.052 mg/kg
- ED30 (rats [2]; i.v.): 8 µg/kg
- maximum decrease in MBP from baseline values (rats [2]; reached with 100 μg/kg i.v.): 34±2%
- time post-injection to maximum decline of MBP (rats [3]; 30 μg/kg i.v.): 30 min
- maximum declines of mean blood pressure (MBP) (rats [3]; 30 μg/kg i.v., at 30 min post-injection): about 20 mmHg

SMILES: CCCCc1ncc(/C=C(\Cc2cccs2)C(=O)O)n1Cc1ccc(C(=O)O)cc1 [Eprosartan, (E)-α-[[2-butyl-1-[(4-carboxyphenyl)methyl]-1H-imidazol-5-yl]methylene]-2-thiophenepropanoic acid]
- ED50 (rats [1]): 0.07 mg/kg
- Potential Dosage Adjustment (%) (rats [1]): 24%
- fall in MBP from baseline values at the next higher dose (rats [2]; 3000 mg/kg i.v.): 23±2%
- ED50 (rats [2]; [5]): ~7 mg/kg
- ED30 (rats [2]; i.v.): 104 µg/kg
- maximum decrease in MBP from baseline values (rats [2]; reached with 1000 μg/kg i.v.): 22±2%

SMILES: CCCCC1=NC2(CCCC2)C(=O)N1Cc1ccc(-c2ccccc2-c2nnn[nH]2)cc1 [Irbesartan, 2-butyl-3-[[2′-(1H-tetrazol-5-yl)[1,1′-bephenyl]-4-yl]methyl]-1,3-diazaspiro[4,4]non-1-en-4-one]
- ED50 (rats [1]): 0.071 mg/kg
- Potential Dosage Adjustment (%) (rats [1]): 23%
- ED50 (rats [2]; [4]): 2.21 mg/kg
- ED30 (rats [2]; i.v.): 649 µg/kg
- maximum decrease in MBP from baseline values (rats [2]; reached with 3,000 μg/kg i.v.): 28±1%

SMILES: CCCCc1nc(Cl)c(CO)n1Cc1ccc(-c2ccccc2-c2nnn[nH]2)cc1 [Losartan, 2-butyl-4-chloro-1-[[2′-(1H-tetrazol-5-yl)[1,1′-biphenyl]-4-yl]methyl]-1H-imidazole-5-methanol]
- ED50 (rats [1]): 0.078 mg/kg
- Potential Dosage Adjustment (%) (rats [1]): 15%
- ED50 (rats [2]; [5]): 10 mg/kg
- ED30 (rats [2]; i.v.): 625 µg/kg
- maximum decrease in MBP from baseline values (rats [2]; reached with 3,000 μg/kg i.v.): 23±3%

SMILES: CCCc1nc2c(C)cc(-c3nc4ccccc4n3C)cc2n1Cc1ccc(-c2ccccc2C(=O)O)cc1 [Telmisartan, 4′-[(1,4′-dimethyl-2′-propyl[2,6′-bi-1H-benzimidazol]-1′-yl)methyl]-[1,1′-biphenyl]-2-carboxylic acid]
- position/shift of the dose response curve of (S)-amlodipine malate plus ARB versus (S)-amlodipine malate alone (rats [1]): offset
- fall in MBP from baseline values at the next higher dose (rats [2]; 1000 mg/kg i.v.): 23±3%
- ED50 (rats [2]; [5]): ~2 mg/kg
- ED30 (rats [2]; i.v.): 242 µg/kg
- maximum decrease in MBP from baseline values (rats [2]; reached with 300 μg/kg i.v.): 19±2%

SMILES: CCCCC(=O)N(Cc1ccc(-c2ccccc2-c2nnn[nH]2)cc1)[C@H](C(=O)O)C(C)C [Valsartan, N-(1-oxopentyl)-N-[[2′-(1H-tetrazol-5-yl)[1,1′-biphenyl]-4-yl]methyl]-L-valine]
- position/shift of the dose response curve of (S)-amlodipine malate plus ARB versus (S)-amlodipine malate alone (rats [1]): greatest leftward shift
- ED50 (rats [1]): 0.063 mg/kg
- Potential Dosage Adjustment (%) (rats [1]): 32%
- fall in MBP from baseline values at the next higher dose (rats [2]; 1000 mg/kg i.v.): 19±3%
- ED50 (rats [2]; [5]): ~4 mg/kg
- ED30 (rats [2]; i.v.): 229 µg/kg
- maximum decrease in MBP from baseline values (rats [2]; reached with 300 μg/kg i.v.): 18±3%
